According to PMC8431557, “Multilevel Approach for the Treatment of Giardiasis by Targeting Arginine Deiminase” (International Journal of Molecular Sciences, 2021):

What was measured:
[1] = target: T1, GlADI (giardial arginine deiminase) (Giardia duodenalis, UniProt E2RU36); assay: residual activity after […] h preincubation, GlDH-coupled NADH assay; format: biochemical; design: gene GL50803_00112103; recombinant in pET28a(+), E. coli Rosetta 2 (DE3) pLysS; N-terminal His6 tag not cleaved; 580 residues; homodimer; 16 Cys per monomer; conditions: covalent (Cys modification); 2 h, pH 8.0, 25 °C
[2] = target: T1, GlADI (giardial arginine deiminase); design: gene GL50803_00112103; conditions: 8 mM L-arginine, pH 8.0, 25 °C
[3] = target: T1, GlADI (giardial arginine deiminase); assay: residual activity after timed preincubation, GlDH-coupled NADH assay; slope of k1 vs concentration; format: biochemical; design: gene GL50803_00112103; recombinant in pET28a(+), E. coli Rosetta 2 (DE3) pLysS; N-terminal His6 tag not cleaved; 580 residues; homodimer; 16 Cys per monomer; conditions: covalent (Cys modification), second-order inactivation rate constant, pH 8.0, 25 °C

T1 sequence (E2RU36 entry or part of it): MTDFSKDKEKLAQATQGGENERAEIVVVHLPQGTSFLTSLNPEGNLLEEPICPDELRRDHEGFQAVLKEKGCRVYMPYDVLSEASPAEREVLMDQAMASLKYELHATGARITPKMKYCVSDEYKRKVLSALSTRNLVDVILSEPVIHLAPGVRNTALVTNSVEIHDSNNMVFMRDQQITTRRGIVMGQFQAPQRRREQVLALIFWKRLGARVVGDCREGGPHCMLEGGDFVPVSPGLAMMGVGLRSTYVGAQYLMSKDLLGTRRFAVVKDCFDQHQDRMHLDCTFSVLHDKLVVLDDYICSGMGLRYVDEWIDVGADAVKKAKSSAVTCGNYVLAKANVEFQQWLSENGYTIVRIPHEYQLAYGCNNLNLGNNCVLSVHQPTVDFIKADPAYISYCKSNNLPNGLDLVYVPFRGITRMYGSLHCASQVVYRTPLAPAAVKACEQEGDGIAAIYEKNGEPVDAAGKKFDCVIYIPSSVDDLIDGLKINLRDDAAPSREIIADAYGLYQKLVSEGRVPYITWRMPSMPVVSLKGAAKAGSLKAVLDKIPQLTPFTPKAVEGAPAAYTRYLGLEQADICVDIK

Row | Compound | residual activity (%) [1] | further results
1 | CC(=C(CCOC(=O)C(C)C)SSC(CCOC(=O)C(C)C)=C(C)N(C=O)Cc1cnc(C)nc1N)N(C=O)Cc1cnc(C)nc1N (stereo in doubt) [sulbutiamine] | all of these drugs were able to inhibit recombinant GlADI in vitro in a dose-dependent manner | 
2 | O=C(O)c1cc(SSc2ccc([N+](=O)[O-])c(C(=O)O)c2)ccc1[N+](=O)[O-] [DTNB, dithio-bis-nitrobenzoic acid] | caused inactivation of the enzyme in a dose-dependent manner (Figure 1E,F) | 
3 | N=C(N)NCCC[C@H](N)C(=O)O [L-arginine] |  | GlDH-coupled NADH oxidation at 340 nm [2]: monitoring the conversion of L-arginine to citrulline
4 | CSS(C)(=O)=O [MMTS, s-methyl methanethiosulfonate] |  | k2 ([3]; 2.5-85 µM): 15.68 ± 0.9 M⁻¹ s⁻¹
5 | COc1ccc2[nH]c([S+]([O-])Cc3ncc(C)c(OC)c3C)nc2c1 (stereo not drawn) [omeprazole] | all of these drugs were able to inhibit recombinant GlADI in vitro in a dose-dependent manner | 
6 | COCCCOc1ccnc(C[S+]([O-])c2nc3ccccc3[nH]2)c1C (stereo not drawn) [rabeprazole] |  | k2 ([3]; 5-110 µM): 6.72 ± 0.2 M⁻¹ s⁻¹
